# Source: patent US20230332232A1, “COMPOSITIONS AND METHODS FOR DIAGNOSING AND TREATING A DYSTONIA” (Duke University, priority 2020, published 2023)
# Tested on: DYT1 knockin (Tor1a^delGAG/+) murine embryonic fibroblasts (MEFs)
# Assay: microRNA-seq of EVs from DYT1 MEFs treated with drug, compared with non-treated DYT1 MEFs
# Format: cell-based, mouse
# Conditions: for Sal Direction Opposite ISRIB?: EVs of DYT1 (Het) MEFs
# Protocol: In addition to proteomic analysis, total RNA-seq and microRNA-seq was performed on RNA isolated in parallel from the EV samples of Cohort 2. As with the proteomic analysis, one biological replicate was prepared from 3 distinct biological clonal cell lines for each genotype. Here, EVs were isolated from conditioned cell culture media by 18 hour ultracentrifugation at 100,000 g. RNA was extracted using the Qiagen miRNeasy Micro Kit (Cat. No. 217084) according to the manufacturer's protocol. Two RNA fractions were extracted from each sample, one enriched in coding and non-coding RNA species>200 nt (“Total RNA” fraction) and one enriched for small RNAs<200 nt (“miRNA” fraction). RNA samples were then submitted to the Duke Sequencing and Genomic Technologies shared resource for further quality control and sequencing. Samples were assessed for concentration and integrity by Qubit and Fragment Analyzer. The miRNA fractions were 4.16 ng/μL-47.57 ng/μL and total RNA fractions were 3.8 ng/μL-43.6 ng/μL. The small RNA library was prepared using the QIAseq miRNA Library Kit (Cat No./ID: 331505) and sequenced on the Illumina NextSeq 500 High-Output platform with 75 bp single-reads. The total RNA library was prepared using the Illumina TruSeq Stranded Total RNA-seq Kit with Ribozero Gold ribosomal RNA reduction and sequenced on the Illumina NovaSeq 6000 S1 platform with 100 bp paired-end reads. Sequencer lane pooling and read depth are attached in the Excel data summary (See “RNA QC” Tab). Data processing and analysis were performed in collaboration with the Duke Genomic Analysis and Bioinformatics shared resource. RNA-seq data was processed using the TrimGalore toolkit (http://www.bioinformatics.babraham.ac.uk/projects/trim_galore), which employs Cutadapt(Martin M. (2011) EMBnet.journal. 17(1):10-12) to trim low quality bases and Illumina sequencing adapters from the 3' end of the reads. Only reads that were 20 nt or longer after trimming were kept for further analysis. Reads were mapped to the mouse genome and transcriptome ([…], et al. (2012) Nucleic Acids Res. 40(Database issue):[…]-97) using the STAR RNA-seq alignment tool (Dobin A, et al. (2013). Bioinformatics. 29(1):15-21). If the reads mapped to a single genomic location, then they were kept for subsequent analysis. Gene counts were compiled using the HTSeq tool (http://www-huber.embl.de/users/anders/HTSeq/). Only genes that had at least 10 reads in any given library were used in subsequent analysis. Normalization and differential expression was carried out using the DESeq26 Bioconductor (Huber W, et al. (2015) Nat Methods. 12(2):115-121) package with the R statistical programming environment (www.r-project.org). […] 694 miRNAs were initially examined with respect to QC, genotype, RTV effects, and ISRIB effects. This subset was the “Full miRNA” subset. FIG. 9A and FIG. 9B show the RTV effect on EV composition in DYT1 cells compared to WT cells for 279 miRNAs, respectively. […] Beginning with the 694 miRNAs in the “Full miRNA” subset, more than 60 molecules were detected in either WT cells or DYT1 cells (WT or Het UMI>60). […] The candidate miRNAs were ranked by the sum of genotype-dependent absolute Z-scores and RTV-induced absolute Z-scores (Abs Z Score Sum (Geno+RTV)). This subset was the “miRNA-Ritonavir Therapeutic Efficacy” subset and contained 201 miRNAs.
# [1] = SAL-treated vs non-treated DYT1 (Het) MEF EVs
structure (smiles),measurement,setting,value
"O=C(/C=C/c1ccccc1)NC(NC(=S)Nc1cccc2cccnc12)C(Cl)(Cl)Cl (centres unmarked) [SAL, Salubrinal]",mmu-miR-147-5p: SALvHet Z Score,[1],−0.16
same,mmu-miR-181a-1-3p: SALvHet Z Score,[1],−0.12
same,mmu-miR-181a-1-3p: Sal Direction Opposite ISRIB?,[1],yes
same,mmu-miR-331-5p: SALvHet Z Score,[1],0.66
same,mmu-miR-668-3p: SALvHet Z Score,[1],0.34
same,mmu-miR-1930-5p: SALvHet Z Score,[1],−1.60
same,mmu-miR-1943-5p: SALvHet Z Score,[1],−0.08
same,mmu-miR-1955-5p: SALvHet Z Score,[1],1.06
same,mmu-miR-3072-5p: SALvHet Z Score,[1],0.00
same,mmu-miR-3076-3p: SALvHet Z Score,[1],0.00
same,mmu-miR-3088-3p: SALvHet Z Score,[1],−1.34
same,mmu-miR-6936-3p: SALvHet Z Score,[1],−0.71
same,mmu-miR-6936-3p: Sal Direction Opposite ISRIB?,[1],yes
same,mmu-miR-7224-3p: SALvHet Z Score,[1],0.30
same,mmu-miR-7224-3p: Sal Direction Opposite ISRIB?,[1],yes
same,mmu-miR-467d-3p: SALvHet Z Score,[1],−0.01
same,SALvHet Z Score,mmu-let-7a-1-3p,0.28
same,SALvHet Z Score,mmu-let-7c-2-3p,0.28
same,SALvHet Z Score,mmu-let-7g-5p,−0.16
same,SALvHet Z Score,mmu-let-7i-3p,0.35
same,Sal Direction Opposite ISRIB?,mmu-miR-30e-5p,yes
same,SALvHet Z Score,mmu-miR-30e-3p,−0.06
same,SALvHet Z Score,mmu-miR-15a-5p,0.17
same,SALvHet Z Score,mmu-miR-16-5p,−0.01
same,SALvHet Z Score,mmu-miR-17-3p,0.10
same,Sal Direction Opposite ISRIB?,mmu-miR-19b-3p,yes
same,SALvHet Z Score,mmu-miR-22-3p,0.17
same,Sal Direction Opposite ISRIB?,mmu-miR-22-3p,yes
same,SALvHet Z Score,mmu-miR-23a-3p,0.05
same,SALvHet Z Score,mmu-miR-25-3p,−0.04
same,Sal Direction Opposite ISRIB?,mmu-miR-26b-Sp,yes
same,SALvHet Z Score,mmu-miR-29b-3p,0.38
same,SALvHet Z Score,mmu-miR-29c-3p,0.40
same,SALvHet Z Score,mmu-miR-30a-5p,−0.09
same,SALvHet Z Score,mmu-miR-30b-5p,0.15
same,SALvHet Z Score,mmu-miR-30c-5p (1st line so named),0.42
same,SALvHet Z Score,mmu-miR-30c-5p (2nd line so named),0.07
same,Sal Direction Opposite ISRIB?,mmu-miR-30c-5p,yes
same,SALvHet Z Score,mmu-miR-31-3p,−0.03
same,SALvHet Z Score,mmu-miR-31-5p,−0.14
same,SALvHet Z Score,mmu-miR-32-5p,0.26
same,SALvHet Z Score,mmu-miR-33-5p,0.26
same,SALvHet Z Score,mmu-miR-34a-5p,−0.03
same,SALvHet Z Score,mmu-miR-34b-5p,0.38
same,SALvHet Z Score,mmu-miR-34c-3p,−0.37
same,SALvHet Z Score,mmu-miR-34c-5p,0.07
same,Sal Direction Opposite ISRIB?,mmu-miR-34c-5p,yes
same,SALvHet Z Score,mmu-miR-96-5p,0.13
same,Sal Direction Opposite ISRIB?,mmu-miR-96-5p,yes
same,SALvHet Z Score,mmu-miR-98-5p,−0.22
same,SALvHet Z Score,mmu-miR-99a-5p,−0.17
same,SALvHet Z Score,mmu-miR-101b-3p,0.64
same,SALvHet Z Score,mmu-miR-106b-3p,−0.23
same,SALvHet Z Score,mmu-miR-106b-5p,0.04
same,SALvHet Z Score,mmu-miR-124-3p,−0.72
same,SALvHet Z Score,mmu-miR-125b-1-3p,−0.41
same,SALvHet Z Score,mmu-miR-130b-3p,0.32
same,Sal Direction Opposite ISRIB?,mmu-miR-130b-3p,yes
same,Sal Direction Opposite ISRIB?,mmu-miR-135a-5p,yes
same,SALvHet Z Score,mmu-miR-136-3p,0.08
same,SALvHet Z Score,mmu-miR-140-3p,0.50
same,Sal Direction Opposite ISRIB?,mmu-miR-140-3p,yes
same,SALvHet Z Score,mmu-miR-146a-5p,0.02
same,SALvHet Z Score,mmu-miR-148a-3p,−0.02
same,SALvHet Z Score,mmu-miR-148b-3p,−0.07
same,SALvHet Z Score,mmu-miR-149-5p,0.03
same,SALvHet Z Score,mmu-miR-151-5p,0.12
same,SALvHet Z Score,mmu-miR-152-3p,−0.02
